{"source": "patent US20130150399A1", "about": "“INHIBITORS OF THE UNFOLDED PROTEIN RESPONSE AND METHODS FOR THEIR USE” (The Board of Trustees of the Leland Stanford Junior …, priority 2006, published 2013)", "key": {"[1]": {"tested_on": "HT1080 tumor xenografts", "assay": "Immunohistochemical analysis of tumor xenografts (pimonidazole, cleaved caspase-3)", "format": "in vivo, mice", "conditions": "three doses, 50 mg/kg", "method": "Tumor-bearing mice were injected i.p. with hypoxyprobe (50 mg/kg) 1 hour prior to sacrifice. Mice were euthanised under anesthesia by cervical dislocation, and tumors were surgically resected, embedded in OCT compound (Sakura Tissue Tek), and frozen at −80° C. Tumors were sectioned at 8 μm, fixed in 4% paraformaldehyde, and blocked in PBS-4% BSA. Tissue sections were incubated overnight in block solution containing antisera specific for hypoxyprobe (1:250) and cleaved caspase-3 (1:400). Slides were washed three times with block solution and incubated for 2 hours at room temperature with anti-mouse Alexa 488 or anti-rabbit Alexa 594 (Invitrogen, San Diego, Calif.). Slides were washed five times in block solution, and coverslips mounted with Permount supplemented with DAPI.\nImmunohistochemical analysis of tumor xenografts. […] D. Quantification of tumor immunohistochemistry. At least 8 randomly chosen fields (>300 cells/field) per tumor were scored for pimonidazole and cleaved caspase-3 staining. A minimum of 3 tumors (250-300 mm^3 at harvest) were analyzed per treatment group. […]\nWe further examined tumors from control and irestatin-treated mice for differences in cell survival. […] The increase in apoptosis was most pronounced in hypoxic tissue regions of tumors, as determined by co-immunoreactivity for pimonidazole adducts (FIG. 14C, bottom panel). […]"}, "[2]": {"tested_on": "P58^IPK, DER-1", "assay": "Northern blot of XBP-1s transcription targets, HT1080 cells", "format": "cell-based, human", "conditions": "2 μM; Tm or hypoxia 24 hours", "method": "Cells were cultured in 10 cm plates, harvested, and total RNA recovered with Trizol (Invitrogen, San Diego, Calif.). Total RNA (10 μg) was resolved on a 1% agarose-formaldehyde gel. ^32P-labeled probes were prepared using the Rediprime II random-prime labeling kit (GE-Amersham, Buckinghamshire, UK). The primers used to PCR amplify probes are as follows. P58^IPK: 5′[…] 3′ (SEQ ID NO: 4); 5′ […] 3′ (SEQ ID NO: 5). DER-1: 5′ […] 3′ (SEQ ID NO: 6); 5′[…] 3′ (SEQ ID NO: 7). Blots were incubated with probe overnight, washed three times in 2×SSC/0.2% SDS, dried, and exposed to a phosphorimager screen overnight. Images were analyzed using ImageQuant software (Molecular Dynamics).\n(§1) A. XBP-luciferase reporter construct. Firefly luciferase was inserted downstream of the IRE1α splice site in human XBP-1 to enable the conditional translation of luciferase under ER stress in an IRE1α-dependent manner. […] After 24 hours, luciferase activity was analyzed in an automated plate reader. For each cell line, values are expressed as the percent inhibition of the median for Tm/Tg-treated wells, corrected for background. […] Values are expressed as the fold increases over uninduced levels. […] Cells were harvested, lysed, and analyzed by immunoblotting with antisera specific for HIF-1α (top), XBP-1s (middle) or actin (bottom). […] Total RNA was analyzed by Northern blotting using radiolabeled probes specific for P58^IPK or DER-1. […]"}, "[3]": {"tested_on": "XBP-1s", "assay": "Western immunoblot of XBP-1s, HT1080 cells", "format": "cell-based, human", "method": "Cells were harvested, lysed, and analyzed by Western blot using anti-XBP-1 antisera (lower panel) or anti-HIF-1 antisera (top panel) to confirm hypoxia exposure.\nCells (2×10^6) were cultured in 10-cm dishes, collected using a cell scraper at 4° C., and lysed by addition of 150 μl cell lysis buffer [50 mM Tris pH 7.4, 150 mM NaCl, 10% glycerol, 0.5% Triton X-100. 0.5% NP-40, 2 mM Na3VO4, 20 mM beta-glycerophosphate, 10 mM NaF, 1 mM DTT, 1 mM PMSF). Lysates were centrifuged for 5 min at 10,000×g, and proteins (˜40 μg) were resolved by SDS-PAGE followed by semi-dry transfer to nitrocellulose membranes. Membranes were blocked in TBS-5% milk supplemented with 0.1% Tween-20. […] After washing in block solution, immunoreactive material was detected by enhanced chemiluminescence (SuperSignal West Dura Extended, Pierce, Inc., Rockville, Ill.).\nas §1, with “construct.” for “construct. Firefly luciferase was inserted downstream of the IRE1α splice site in human XBP-1 to enable the conditional translation of luciferase under ER stress in an IRE1α-dependent manner.”"}}}
{"compound": "Cc1csc(NC(=O)CSc2nc3c(c(C(F)(F)F)c2C#N)CCC3)n1", "note": "[Compound 9389]", "values": [{"measurement": "cleaved caspase-3 in tumors relative to vehicle", "setting": "[1]", "value": "significant increase in cleaved caspase-3"}, {"measurement": "apoptotic fraction of hypoxic cells in tumors", "setting": "[1]; cleaved caspase-3 in pimonidazole-positive cells", "value": "~45", "unit": "%"}, {"measurement": "induction of P58^IPK and DER-1 expression", "setting": "[2]", "value": "fully inhibited this response"}, {"measurement": "levels of XBP-1s under hypoxia", "setting": "[3]; 2 μM, 24 hours of hypoxia", "value": "decreased levels of XBP-1s"}, {"measurement": "accumulation of XBP-1s following treatment with Tm", "setting": "[3]; irestatins 2 μM, Tm (4 μg/ml) 20 hours", "value": "blocked the accumulation of XBP-1s"}]}
